Results taken from ChEMBL document CHEMBL2069175, “Antiplasmodial activities of 4-aminoquinoline-statine compounds” (Bioorg Med Chem Lett, 2012).

Columns and labels:
[1] = Inhibition of Plasmodium malariae PLM4 using Lys-Glu-Phe-Val-Phe-NPhe-Ala-Leu-Lys as substrate by spectrophotometry
[2] = system: Plasmodium falciparum; assay: microbe, parasite or virus in culture; conditions: W2, 72 h
Description: Antiplasmodial activity against chloroquine-resistant Plasmodium falciparum W2 after 72 hrs by parasite lactate dehydrogenase assay

[3] = target: Plasmepsin II (Plasmodium falciparum, UniProt P46925); assay: Inhibition of Plasmodium falciparum PLM2 using Lys-Glu-Phe-Val-Phe-NPhe-Ala-Leu-Lys as substrate by spectrophotometry
Plasmepsin II, sequence (P46925 whole entry): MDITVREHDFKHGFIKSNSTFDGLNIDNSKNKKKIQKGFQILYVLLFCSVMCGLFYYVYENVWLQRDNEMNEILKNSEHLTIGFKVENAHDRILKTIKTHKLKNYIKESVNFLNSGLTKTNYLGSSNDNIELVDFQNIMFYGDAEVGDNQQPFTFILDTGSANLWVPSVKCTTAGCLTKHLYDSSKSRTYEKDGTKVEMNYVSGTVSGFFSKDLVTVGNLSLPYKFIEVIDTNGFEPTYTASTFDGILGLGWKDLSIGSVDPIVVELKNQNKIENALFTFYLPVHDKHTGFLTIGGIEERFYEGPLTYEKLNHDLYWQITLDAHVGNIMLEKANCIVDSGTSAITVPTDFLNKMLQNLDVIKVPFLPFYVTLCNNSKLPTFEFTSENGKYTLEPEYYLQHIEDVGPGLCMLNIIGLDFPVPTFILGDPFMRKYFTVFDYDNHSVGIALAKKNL

[4] = Cytotoxicity against human HDF at 100 uM; conditions: HDF cells, read-out: INH
[5] = system: Plasmodium falciparum; assay: Antiplasmodial activity against chloroquine-resistant Plasmodium falciparum W2; assay type: functional, organism-based
[6] = Inhibition of Plasmodium falciparum PLM4 using Lys-Glu-Phe-Val-Phe-NPhe-Ala-Leu-Lys as substrate by spectrophotometry
[7] = system: Plasmodium falciparum; assay: microbe, parasite or virus in culture; conditions: D10, 72 h
Description: Antiplasmodial activity against chloroquine-sensitive Plasmodium falciparum D10 after 72 hrs by parasite lactate dehydrogenase assay

[8] = Inhibition of Plasmodium vivax PLM4 using Lys-Glu-Phe-Val-Phe-NPhe-Ala-Leu-Lys as substrate by spectrophotometry
[9] = Inhibition of Plasmodium ovale PLM4 using Lys-Glu-Phe-Val-Phe-NPhe-Ala-Leu-Lys as substrate by spectrophotometry
[10] = system: Plasmodium falciparum; assay: Antiplasmodial activity against chloroquine-sensitive Plasmodium falciparum D10; assay type: functional, organism-based
[11] = target: Cathepsin D (Homo sapiens, UniProt P07339); assay: Inhibition of human cathepsin D
Cathepsin D, sequence (P07339 65-162 limits assumed): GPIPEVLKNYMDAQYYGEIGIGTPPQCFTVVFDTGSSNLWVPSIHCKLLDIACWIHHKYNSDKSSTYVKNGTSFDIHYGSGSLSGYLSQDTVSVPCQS
Cathepsin D, sequence (P07339 169-412 limits assumed): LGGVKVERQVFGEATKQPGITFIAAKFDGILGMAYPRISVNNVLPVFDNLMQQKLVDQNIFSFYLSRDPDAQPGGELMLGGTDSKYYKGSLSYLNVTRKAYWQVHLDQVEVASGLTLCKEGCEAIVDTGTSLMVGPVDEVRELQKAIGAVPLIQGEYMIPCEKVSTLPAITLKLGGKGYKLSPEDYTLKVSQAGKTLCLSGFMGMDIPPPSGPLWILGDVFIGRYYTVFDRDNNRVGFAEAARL

SMILES	Ki [1]	IC50 [2]	Ki ([3]; read-out: Ki)	cytotoxicity at 100 µM [4]	IC50 [5]	Ki [6]	IC50 [7]	Ki [8]	Ki [9]	IC50 [10]	IC50 [11]	Ki [3]
CCCCNC(=O)C[C@H](O)[C@H](CC(C)C)NC(=O)[C@@H](NC(=O)c1ccc(Oc2ccc(C(=O)N[C@@H](CC(C)C)C(=O)N[C@@H](CCCCN)C(=O)NCCCC(C)Nc3cc(OC)cc4cccnc34)cc2)cc1)[C@@H](C)CC (some centres not stated)	1.2 nM	700 nM	0.4 nM	50%	400 nM	0.5 nM	400 nM	1.2 nM	10 nM	400 nM		
CCCCNC(=O)C[C@H](O)[C@H](CC(C)C)NC(=O)[C@@H](NC(=O)c1ccc(Oc2ccc(C(=O)NCCCNc3ccnc4cc(Cl)ccc34)cc2)cc1)[C@@H](C)CC	0.93 nM	78 nM	2.3 nM			5.4 nM	177 nM	0.7 nM	11 nM		220 nM	
CCCCNC(=O)C[C@H](O)[C@H](CC(C)C)NC(=O)[C@@H](NC(=O)c1ccc(Oc2ccc(C(=O)N[C@@H](C)C(=O)NCCCNc3ccnc4cc(Cl)ccc34)cc2)cc1)[C@@H](C)CC	2.4 nM	64 nM	3.8 nM			8.7 nM	114 nM	0.48 nM	8.5 nM		540 nM	
CCCCNC(=O)C[C@H](O)[C@H](CC(C)C)NC(=O)[C@@H](NC(=O)c1ccc(Oc2ccc(C(=O)N[C@@H](CC(C)C)C(=O)N[C@@H](C)C(=O)NCCCNc3ccnc4ccccc34)cc2)cc1)[C@@H](C)CC	0.87 nM	474 nM	2.6 nM			6.7 nM	161 nM	0.43 nM	8.1 nM		300 nM	
CCCCNC(=O)C[C@H](O)[C@H](CC(C)C)NC(=O)[C@@H](NC(=O)c1ccc(Oc2ccc(C(=O)NCc3ccccc3)cc2)cc1)[C@@H](C)CC	5.8 nM	> 7000 nM	1.3 nM			20 nM	> 7000 nM	19 nM	1.1 nM			
CCCCNC(=O)C[C@H](O)[C@H](CC(C)C)NC(=O)[C@@H](NC(=O)c1ccc(Oc2ccc(C(=O)OCc3ccccc3)cc2)cc1)[C@@H](C)CC	2.1 nM	4680 nM	1.9 nM			2.6 nM	3850 nM	4.7 nM	0.34 nM			
CC(C)C[C@H](NC(=O)OCc1ccccc1)C(=O)N[C@@H](C)C(=O)NCCCNc1ccnc2cc(Cl)ccc12		1680 nM					197 nM					Not Active
CCN(CC)CCCC(C)Nc1ccnc2cc(Cl)ccc12 (configuration not stated) [CHLOROQUINE]												Not Active
